Test results reported in US20120245176A1, “NOVEL […] WITH S[…] AS BROAD-[…] INFLUENZA ANTIVIRALS” (priority 2010, published 2012).
Where two headings read alike, the source gives them in different places.

Columns and labels:
[1] = Human Liver Microsomal Stability; settings: human liver microsomes
[2] = Mouse Liver Microsomal Stability; settings: mouse liver microsomes
A/H5N1/Duck_MN = assay: microbe, parasite or virus in culture; format: cell-based, influenza virus; settings: read-out: A/H5N1/Duck_MN EC50
A/H1N1/Solomon Islands = assay: Antiviral assay in MDCK cells, viral neuraminidase (MUNANA) readout, A/H1N1/Solomon Islands; format: cell-based, influenza A; settings: viral NA activity
A/H5N1/Duck_PA = assay: microbe, parasite or virus in culture; format: cell-based, influenza virus; settings: read-out: A/H5N1/Duck_PA EC50
A/H5N1/Gull_PA = assay: microbe, parasite or virus in culture; format: cell-based, influenza virus; settings: read-out: A/H5N1/Gull_PA EC50
A/H1N1/WSN = assay: Antiviral assay in MDCK cells, viral neuraminidase (MUNANA) readout, A/H1N1/WSN; format: cell-based, influenza A; settings: MOI 0.001, 48 hrs post infection, viral NA activity
A/H3N2 Brisbane = assay: Antiviral assay in MDCK cells, viral neuraminidase (MUNANA) readout, A/H3N2 Brisbane; format: cell-based, influenza A; settings: viral NA activity
[3] = MOI 0.001, 48 hrs post infection
[4] = Influenza A virus, H5N1, MDCK, 48 h
[5] = Influenza A virus, H1N1, MOI 0.001, 48 hrs post infection
[6] = Influenza A virus, H3N2, MOI 0.001, 48 hrs post infection

Row | SMILES | Human Liver Microsomal Stability (% Remaining after 10 minutes) [1] | Mouse Liver Microsomal Stability (% Remaining after 10 minutes) [2] | EC50 (A/H5N1/Duck_MN) | EC50 (A/H1N1/Solomon Islands; [3]) | EC50 (A/H5N1/Duck_PA) | EC50 (A/H5N1/Gull_PA) | EC50 (A/H1N1/WSN) | EC50 (A/H3N2 Brisbane; [3]) | further results
1 | Cc1onc(-c2ccccc2)c1C(=O)N1CCN(c2ccc([N+](=O)[O-])cc2Cl)CC1 [reference compound] | 40% | 20% |  |  |  |  |  |  | 
2 | COc1ccccc1-c1noc(C)c1C(=O)N1CCN(c2ccc([N+](=O)[O-])cc2Cl)CC1 [Example 18] |  |  | < 1 µM | < 1 µM | < 1 µM | < 0.1 µM | < 0.1 µM | < 10 µM | 
3 | COc1cc(F)ccc1-c1noc(C)c1C(=O)N1CCN(c2ccc([N+](=O)[O-])cc2Cl)CC1 [Example 29] | 68% | 28% |  |  |  |  |  |  | 
4 | Cc1onc(-c2cccnc2Cl)c1C(=O)N1CCN(c2ccc([N+](=O)[O-])cc2Cl)CC1 [Example 61] | 50% | 18% | < 1 µM | < 10 µM | < 1 µM | < 1 µM | < 0.1 µM | > 10 µM | 
5 | Cc1onc(-c2ccccc2C(N)=O)c1C(=O)N1CCN(c2ccc([N+](=O)[O-])cc2Cl)CC1 [Example 155, 2-(4-(4-(2-chloro-4-nitrophenyl)piperazine-1-carbonyl)-5-methylisoxazol-3-yl)benzamide] | 80% | 61% |  |  |  |  |  |  | 
6 | COc1ccccc1-c1noc(C)c1C(=O)N1CCN(c2ncc(Cl)cc2Br)CC1 [Example 129] |  |  | < 10 µM | < 10 µM | < 10 µM | < 1 µM | < 1 µM | < 10 µM | 
7 | Cc1onc(-c2ccccc2O)c1C(=O)N1CCN(c2ncc(Cl)cc2Cl)CC1 [Example 142, (4-(3,5-dichloropyridin-2-yl)piperazin-1-yl)(3-(2-hydroxyphenyl)-5-methylisoxazol-4-yl)methanone] | 80% | 34% |  |  |  |  |  |  | 
8 | Cc1cc(Br)cnc1N1CCN(C(=O)c2c(-c3ccccc3Cl)noc2C)CC1 [Example 132, (4-(5-bromo-3-methylpyridin-2-yl)piperazin-1-yl)(3-(2-chlorophenyl)-5-methylisoxazol-4-yl)methanone] |  |  |  |  |  |  |  |  | EC50 (A/H5N1/Duck_MN; [4]): > 10 µM; EC50 (A/H1N1/Solomon Islands; [5]): < 10 µM; EC50 (A/H5N1/Duck_PA; [4]): > 10 µM; EC50 (A/H5N1/Gull_PA; [4]): > 10 µM; EC50 (A/H1N1/WSN; Influenza A virus): < 1 µM; EC50 (A/H3N2 Brisbane; [6]): > 10 µM
9 | Cc1onc(-c2ccccc2Cl)c1C(=O)N1CCN(c2ccc([N+](=O)[O-])cc2Cl)CC1 [reference compound] | 6% | 0% |  |  |  |  |  |  | 
10 | COc1ccc(NS(C)(=O)=O)cc1-c1noc(C)c1C(=O)N1CCN(c2ncc(Cl)cc2Cl)CC1 [Example 161, N-(3-(4-(4-(3,5-dichloropyridin-2-yl)piperazine-1-carbonyl)-5-methylisoxazol-3-yl)-4-methoxyphenyl)methanesulfonamide] | 70% | 8% |  |  |  |  |  |  | 
11 | Cc1cnn(-c2ccccc2Cl)c1C(=O)N1CCN(c2ccc([N+](=O)[O-])cc2Cl)CC1 [Example 77] |  |  | < 10 µM | > 10 µM | < 10 µM | < 1 µM | < 1 µM | > 10 µM | 
12 | COc1ccccc1-c1n[nH]c(C)c1C(=O)N1CCN(c2ccc([N+](=O)[O-])cc2Cl)CC1 [Example 80] | 72% | 65% | < 10 µM | < 10 µM | < 10 µM | < 1 µM | < 10 µM | > 10 µM | 
13 | COc1ccccc1-c1n[nH]c(C)c1C(=O)N1CCN(c2ncc([N+](=O)[O-])cc2Cl)CC1 [Example 83] | 52% | 16% |  |  |  |  |  |  | 
14 | Cc1c[nH]c(-c2ccccc2Cl)c1C(=O)N1CCN(c2ncc(Cl)cc2Cl)CC1 [Example 133] |  |  | > 10 µM | < 10 µM | > 10 µM | < 10 µM | < 1 µM | < 10 µM | 
15 | Cc1onc(-c2cccc(Cl)c2)c1C(=O)N1CCN(c2ccc([N+](=O)[O-])cc2Cl)CC1 [Example 28] | 94% | 85% |  |  |  |  |  |  | 
16 | COc1ccc(-c2noc(C)c2C(=O)N2CCN(c3ccc([N+](=O)[O-])cc3Cl)CC2)c(Cl)c1 [Example 31] |  |  | < 1 µM | < 1 µM | < 1 µM | < 0.1 µM | < 0.1 µM | > 10 µM | 
17 | Cc1nnn(-c2ccccc2Cl)c1C(=O)N1CCN(c2ccc([N+](=O)[O-])cc2Cl)CC1 [Example 88] | 47% | 23% | < 10 µM | < 10 µM | < 10 µM | < 1 µM | < 1 µM | > 10 µM | 
18 | Cc1[nH]nc(-c2ccccc2Cl)c1C(=O)N1CCN(c2ccc([N+](=O)[O-])cc2Cl)CC1 [Example 72] | 78% | 61% | < 10 µM | > 10 µM | < 10 µM | < 1 µM | < 1 µM | > 10 µM | 
19 | COc1ccc(N)cc1-c1noc(C)c1C(=O)N1CCN(c2ncc(Cl)cc2Cl)CC1 [Example 159, (3-(5-amino-2-methoxyphenyl)-5-methylisoxazol-4-yl)(4-(3,5-dichloropyridin-2-yl)piperazin-1-yl)methanone] | 62% | 36% |  |  |  |  |  |  | 
20 | COc1ccccc1-c1ncn(C)c1C(=O)N1CCN(c2ccc([N+](=O)[O-])cc2Cl)CC1 [Example 82] | 45% | 43% | < 10 µM | > 10 µM | < 10 µM | < 1 µM | < 1 µM | > 10 µM | 
21 | COc1ccc(NS(C)(=O)=O)cc1-c1noc(C)c1C(=O)N1CCN(c2ccc([N+](=O)[O-])cc2Cl)CC1 [Example 163] | 75% | 49% |  |  |  |  |  |  | 
22 | Cc1onc(-c2ccccc2Cl)c1C(=O)N1CCN(c2ccc([N+](=O)[O-])cc2F)CC1 [Example 4] | 72% | 86% |  |  |  |  |  |  | 
23 | COc1ccccc1-c1nnn(C)c1C(=O)N1CCN(c2ncc([N+](=O)[O-])cc2Cl)CC1 [Example 86] |  |  | < 10 µM | < 10 µM | < 10 µM | < 1 µM | < 1 µM | > 10 µM | 
24 | Cc1onc(-c2ccc(F)cc2)c1C(=O)N1CCN(c2ccc([N+](=O)[O-])cc2Cl)CC1 [Example 27] | 66% | 86% |  |  |  |  |  |  | 
25 | COc1ccc(NC(C)=O)cc1-c1noc(C)c1C(=O)N1CCN(c2ccc([N+](=O)[O-])cc2Cl)CC1 [Example 165] |  |  | < 10 µM | < 1 µM | < 10 µM | < 1 µM | < 1 µM | > 10 µM | 
26 | COc1ccc2ccccc2c1-c1noc(C)c1C(=O)N1CCN(c2ccc([N+](=O)[O-])cc2Cl)CC1 [Example 63] |  |  | < 1 µM | < 1 µM | < 1 µM | < 0.1 µM | < 0.1 µM | > 10 µM | 
27 | COc1ncccc1-c1noc(C)c1C(=O)N1CCN(c2ccc([N+](=O)[O-])cc2Cl)CC1 [Example 45] | 56% | 33% |  |  |  |  |  |  | 
28 | Cc1c[nH]c(-c2ccccc2Cl)c1C(=O)N1CCN(c2ccc([N+](=O)[O-])cc2Cl)CC1 [Example 75, (4-(2-chloro-4-nitrophenyl)piperazin-1-yl)(2-(2-chlorophenyl)-4-methyl-1H-pyrrol-3-yl)methanone] |  |  |  |  |  |  |  |  | EC50 (A/H5N1/Duck_MN; [4]): < 1 µM; EC50 (A/H1N1/Solomon Islands; [5]): < 10 µM; EC50 (A/H5N1/Duck_PA; [4]): < 1 µM; EC50 (A/H5N1/Gull_PA; [4]): < 0.1 µM; EC50 (A/H1N1/WSN; Influenza A virus): < 0.1 µM; EC50 (A/H3N2 Brisbane; [6]): > 10 µM
29 | COc1ccccc1-c1nnn(C)c1C(=O)N1CCN(c2ccc([N+](=O)[O-])cc2Cl)CC1 [Example 81] | 73% | 45% | < 1 µM | < 10 µM | < 1 µM | < 0.1 µM | < 0.1 µM | > 10 µM | 
